We go through 1 substance from patent publication US20240165196A1, “Beta-Lactamase Inhibitors” (VIB VZW, priority 2021, published 2024).

For experiment [1], the system named is E. coli K12 MG1655 overexpressing GFP. Briefly: Structured Illumination Microscopy of bacterial strains stably expressing GFP or FP fusions. In kind it is cell-based. The following applies: strains expressing GFP or proteins fused to FPs, treated with TEM3.2. As to the method: FIGS. 3A-3P. […] Three replicates are shown for each condition. […] A single representative image is shown. […] Three replicates are shown for each condition. (FIG. 3E) [Left] […] [Middle] […] [Right] […] A single representative image is shown. […] A single representative image is shown. […] A single representative image is shown. […] A single representative blot is shown. […] 106 cells were analysed for the plot.
Moreover, we confirmed the presence of the protein in the correct band using mass spectrometry proteomics. We repeated this with a strain expressing SHV-154, blotting with a polyclonal rabbit antibody raised against the recombinant SHV enzyme described above (FIG. 3K).
Bacteria were fixed by adding 2.5% paraformaldehyde and 0.04% glutaraldehyde (final concentrations) to the culture media, followed by incubation at room temperature for 15 mins and 30 mins on ice. Bacteria were then washed in PBS and resuspended in GTE buffer (50 mM glucose, 25 mM Tris, and 10 mM EDTA, pH 8.0). Directly preceding microscopic analysis, cells were transferred to a glass slide and covered with a coverslip. Imaging was performed using a Zeiss Elyra S.1 system in the LiMoNe Light microscopy facility of VIB-KU Leuven.

The test system of experiment [2] is E. coli strains carrying ESBL mutants of TEM. Briefly: checkerboard assay (FICI), TEM3.2 versus ampicillin. The class given is cell-based. An excerpt:
FIGS. 2A-2M. (FIG. 2A) TEM mutations and their effects on stability (total energy) as predicted by FoldX. […] Dashed line indicates a total energy difference of 0.5 kcal/mol, the FoldX cut-off above which mutations are considered to be destabilizing. (FIG. 2B) Barplot mapping mutations in (FIG. 2A) to the TEM sequence and indicating occurrence. […] The bar heights correspond to the number of times a mutation occurs across different TEM variants (right-hand y-axis). The color coding is identical to that in (FIG. 2A). Red line indicates the TANGO scores (indicated on the left-hand y-axis), with peaks corresponding to APRs. […]
Moreover, the core sequence of peptide TEM3.0 also occurs in the structurally related SHV β-lactamase (FIG. 2E). […] To quantify the synergy between these four peptides and penicillin G, we performed a so-called checkerboard assay, which allows to compare the activity of two test compounds co-incubated (here peptide and a beta-lactam antibiotic), to their individual activities in isolation. The result from the assay is quantified as the Fractional Inhibitory Concentration Index (FICI), and it is generally accepted that values below 0.5 indicate synergistic effects between the compounds. […] We evaluated the synergy of the peptides with penicillin G in clinical E. coli isolates carrying the TEM (FIG. 2I) or SHV enzymes (FIG. 2J). […]

Regarding Ac-RLTAFLHNRRPRLTAFLRQRR-NH2 [TEM3.2], the “induced aggregation of fluorescent proteins” value in experiment [1] is given as “did not observe any induced aggregation”. The “synergy with ampicillin (FICI)” value in experiment [2] was “synergy”.
